Measured values: US8247211B2, “Glycopeptide antibiotics” (American Cyanamid Company, priority 2001, dated 2012)
≈ marks a conversion by molar mass, not a printed value.

Columns and labels:
Assay in all cases: In vitro antibacterial evaluation: minimum inhibitory concentration (MIC), broth dilution method
Format in all cases: cell-based
Enterococcus sp. = test system: Enterococcus sp.
How it was run: (§1)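 NCCLS M7-A2 broth dilution with Mueller-Hinton II, testing 64-0.06 μg/mL antibiotic against 5×10^5 CFU/mL inocula. Test strains include recent methicillin-, penicillin- or vancomycin-resistant clinical isolates. MIC is the lowest concentration preventing growth.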

Escherichia coli [1] = test system: Escherichia coli
How it was run: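 Following NCCLS approved standard M7-A2, compounds are serially diluted from 64 to 0.06 μg/mL in Muller-Hinton II […] and inoculated at 5×10^5 CFU/mL; the MIC is the minimum concentration at which growth is inhibited.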

Staphylococcus sp. = details: 18 hours at 35° C.
How it was run: as §1

Streptococcus sp. = details: 18 hours at 35° C.
How it was run: as §1

Escherichia coli [2] = test system: Escherichia coli; remark: listed apart in the source

Row | SMILES | MIC Enterococcus avium (GC 4558) (Enterococcus sp.) | MIC Enterococcus faecalis (ATCC 29212) (Enterococcus sp.) | MIC Enterococcus faecalis (GC 4553) (Enterococcus sp.) | MIC Enterococcus faecalis (GC 4554) (Enterococcus sp.) | MIC Enterococcus faecium (GC 2243) (Enterococcus sp.) | MIC Enterococcus faecium (GC 4556) (Enterococcus sp.) | MIC Enterococcus faecium (GC 4557) (Enterococcus sp.) | MIC Escherichia coli (GC 4559) (Escherichia coli [1]) | MIC Escherichia coli (GC 4560) (Escherichia coli [1]) | MIC Coagulase Negative Staphylococcus (GC 4547) (Staphylococcus sp.) | MIC Coagulase Negative Staphylococcus (GC 4548) (Staphylococcus sp.) | MIC Coagulase Negative Staphylococcus (GC 4549) (Staphylococcus sp.) | MIC Coagulase Negative Staphylococcus (GC 4551) (Staphylococcus sp.) | MIC Staphylococcus aureus (ATCC 29213) (Staphylococcus sp.) | MIC Staphylococcus aureus (GC 1131) (Staphylococcus sp.) | MIC Staphylococcus aureus (GC 4541) (Staphylococcus sp.) | MIC Staphylococcus aureus (GC 4542) (Staphylococcus sp.) | MIC Staphylococcus aureus (GC 4544) (Staphylococcus sp.) | MIC Staphylococcus aureus (GC 4545) (Staphylococcus sp.) | MIC Staphylococcus aureus-SMITH (GC 4543) (Staphylococcus sp.) | other results
1 | CC(C)CC(=O)OC1C(OC2C(CO)OC(Oc3ccc(CC4NC(=O)C(C(C)c5cccs5)NC(=O)CNC(=O)C(CO)NC(=O)C(C(O)C5CNC(=N)N5C5OC(CO)C(O)C(O)C5O)NC(=O)C(C(O)C5CNC(=N)N5)NC4=O)cc3)C(O)C2O)OC(CO)C(O)C1O (centres unmarked) [Example 265a, Cyclo[3-(2-thienyl)-2-aminobutanoyl-O-[4-O-[2-O-(3-methylbutanoyl)hexopyranosyl]hexopyranosyl]tyrosyl-3-(2-iminoimidazolidin-4-yl)seryl-3-(3-hexopyranosyl-2-iminoimidazolidin-4-yl)serylserylglycyl]] | 64 µg/mL (≈ 46.2 µM) | 64 µg/mL (≈ 46.2 µM) | >64 µg/mL | >64 µg/mL | >64 µg/mL | 64 µg/mL (≈ 46.2 µM) | 8 µg/mL (≈ 5.77 µM) | >64 µg/mL | 4 µg/mL (≈ 2.89 µM) | 8 µg/mL (≈ 5.77 µM) | 8 µg/mL (≈ 5.77 µM) | 4 µg/mL (≈ 2.89 µM) | 8 µg/mL (≈ 5.77 µM) | 16 µg/mL (≈ 11.5 µM) | 32 µg/mL (≈ 23.1 µM) | 16 µg/mL (≈ 11.5 µM) | 16 µg/mL (≈ 11.5 µM) | 8 µg/mL (≈ 5.77 µM) | 16 µg/mL (≈ 11.5 µM) | 8 µg/mL (≈ 5.77 µM) | MIC Coagulase Negative Staphylococcus (GC 4547) (Staphylococcus sp.; broth dilution): 8 µg/mL (≈ 5.77 µM); MIC Coagulase Negative Staphylococcus (GC 4548) (Staphylococcus sp.; broth dilution): 8 µg/mL (≈ 5.77 µM); MIC Coagulase Negative Staphylococcus (GC 4549) (Staphylococcus sp.; broth dilution): 4 µg/mL (≈ 2.89 µM); MIC Coagulase Negative Staphylococcus (GC 4551) (Staphylococcus sp.; broth dilution): 8 µg/mL (≈ 5.77 µM); MIC Staphylococcus aureus (ATCC 29213) (Staphylococcus sp.; broth dilution): 16 µg/mL (≈ 11.5 µM); MIC Staphylococcus aureus (GC 1131) (Staphylococcus sp.; broth dilution): 32 µg/mL (≈ 23.1 µM); MIC Staphylococcus aureus (GC 4541) (Staphylococcus sp.; broth dilution): 16 µg/mL (≈ 11.5 µM); MIC Staphylococcus aureus (GC 4542) (Staphylococcus sp.; broth dilution): 16 µg/mL (≈ 11.5 µM); MIC Staphylococcus aureus (GC 4544) (Staphylococcus sp.; broth dilution): 8 µg/mL (≈ 5.77 µM); MIC Staphylococcus aureus (GC 4545) (Staphylococcus sp.; broth dilution): 16 µg/mL (≈ 11.5 µM); MIC Staphylococcus aureus-SMITH (GC 4543) (Staphylococcus sp.; broth dilution): 8 µg/mL (≈ 5.77 µM); MIC Staphylococcus haemolyticus (GC 4546) (Staphylococcus sp.): 8 µg/mL (≈ 5.77 µM); MIC Staphylococcus haemolyticus (GC 4546) (Staphylococcus sp.; broth dilution): 8 µg/mL (≈ 5.77 µM); MIC Streptococcus pyogenes (GC 4563) (Streptococcus sp.; broth dilution, strain GC 4563): 4 µg/mL (≈ 2.89 µM); MIC Streptococcus pyogenes (ID-3187) (Streptococcus sp.; broth dilution, strain ID-3187): 64 µg/mL (≈ 46.2 µM); MIC Escherichia coli (ATCC 25922) (Escherichia coli [2]): >64 µg/mL
2 | CC(c1ccccc1)C1NC(=O)CNC(=O)C(CO)NC(=O)C(C(O)C2CNC(=N)N2C2OC(CO)C(O)C(O)C2O)NC(=O)C(C(O)C2CNC(=N)N2)NC(=O)C(Cc2ccc(OC3OC(CO)C(OC4OC(COC(=O)NCc5ccccc5)C(O)C(O)C4O)C(O)C3O)cc2)NC1=O (stereo not drawn) [Example 257b, γ-O-[(Benzylamino)carbonyl]-cyclo[glycyl-β-methylphenylalanyl-O-(4-O-hexopyranosylhexopyranosyl)tyrosyl-3-(2-iminoimidazolidin-4-yl)seryl-3-(3-hexopyranosyl-2-iminoimidazolidin-4-yl)serylseryl]] | 0.5 µg/mL (≈ 0.35 µM) | 0.5 µg/mL (≈ 0.35 µM) | 0.5 µg/mL (≈ 0.35 µM) | >0.5 µg/mL | 16 µg/mL (≈ 11.2 µM) | 16 µg/mL (≈ 11.2 µM) | 2 µg/mL (≈ 1.4 µM) | >0.5 µg/mL | 0.5 µg/mL (≈ 0.35 µM) | 2 µg/mL (≈ 1.4 µM) | 2 µg/mL (≈ 1.4 µM) | 2 µg/mL (≈ 1.4 µM) | 4 µg/mL (≈ 2.8 µM) | 0.5 µg/mL (≈ 0.35 µM) | 0.5 µg/mL (≈ 0.35 µM) | 0.5 µg/mL (≈ 0.35 µM) | 0.5 µg/mL (≈ 0.35 µM) | 0.5 µg/mL (≈ 0.35 µM) | 0.5 µg/mL (≈ 0.35 µM) | 0.5 µg/mL (≈ 0.35 µM) | MIC Enterococcus faecalis (GC 2242) (Enterococcus sp.; Enterococcus faecalis (GC 2242), 18 hours at 35° C.): 0.5 µg/mL (≈ 0.35 µM); MIC Enterococcus faecalis (GC 2691) (Enterococcus sp.; Enterococcus faecalis (GC 2691), 18 hours at 35° C.): 0.5 µg/mL (≈ 0.35 µM); MIC Enterococcus faecalis (GC 3059) (Enterococcus sp.; Enterococcus faecalis (GC 3059), 18 hours at 35° C.): 0.5 µg/mL (≈ 0.35 µM); MIC Enterococcus faecalis (GC 4552) (Enterococcus sp.; Enterococcus faecalis (GC 4552), 18 hours at 35° C.): >0.5 µg/mL; MIC Enterococcus faecalis (GC 6189) (Enterococcus sp.; Enterococcus faecalis (GC 6189)): 0.5 µg/mL (≈ 0.35 µM); MIC Coagulase Negative Staphylococcus (GC 6257) (Staphylococcus sp.; Coagulase Negative Staphylococcus (GC 6257)): 1 µg/mL (≈ 0.7 µM); MIC Staphylococcus aureus (GC 3051) (Staphylococcus sp.; Staphylococcus aureus (GC 3051)): 0.5 µg/mL (≈ 0.35 µM); MIC Staphylococcus aureus (GC 3053) (Staphylococcus sp.; Staphylococcus aureus (GC 3053)): 0.5 µg/mL (≈ 0.35 µM); MIC Staphylococcus haemolyticus (GC 4546) (Staphylococcus sp.): 2 µg/mL (≈ 1.4 µM); MIC Streptococcus agalactiae (GC 4564) (Streptococcus sp.; Streptococcus agalactiae (GC 4564)): 1 µg/mL (≈ 0.7 µM); MIC Streptococcus pneumoniae (ATCC 6301) (Streptococcus sp.; Streptococcus pneumoniae (ATCC 6301)): 0.25 µg/mL (≈ 0.175 µM); MIC Streptococcus pneumoniae (GC 1894) (Streptococcus sp.; Streptococcus pneumoniae (GC 1894)): 0.25 µg/mL (≈ 0.175 µM); MIC Streptococcus pneumoniae (GC 4565) (Streptococcus sp.; Streptococcus pneumoniae (GC 4565)): 0.5 µg/mL (≈ 0.35 µM); MIC Streptococcus pyogenes (GC 4563) (Streptococcus sp.; Streptococcus pyogenes (GC 4563)): 0.12 µg/mL (≈ 0.084 µM); MIC Escherichia coli (ATCC 25922) (Escherichia coli [2]): >0.5 µg/mL
